Reference: US20110189174A1, “COMPOSITIONS AND METHODS FOR TREATING, REDUCING, AMELIORATING, ALLEVIATING, OR INHIBITING PROGRESSION OF, PATHOGENIC OCULAR NEOVASCULARIZATION” (priority 2010, published 2011)

Assays:
[1] = system: human retinal endothelial cells (HREC); assay: PMA-induced HREC network formation in fibrin gel; format: cell-based; details: PMA 25 ng/mL, vs PMA control
Protocol: Prior to the start of the experiment, HREC from Cell Systems were cultured in flask in CS-C complete medium. The tube formation assay was performed in a 96-well plate pre-coated with fibrin gel. HREC were collected from flasks and re-suspended 1% FBS EBM-2 medium. Cells were pre-incubated with the integrin antagonists, echistatin or vehicle control for 30 min before loading onto the fibrin gel. Images were taken at 9 h.
Thrombin solution and fibrinogen solutions were allowed to thaw at room temperature and 37° C. water bath, respectively. Fibrinogen solution at 30 μL was added into the desired number of wells in a 96-well plate. Plate was gently shaken to ensure uniform coverage of fibrinogen solution in the well. Thrombin at 20 μL was added into each well. The plate was gently shaken immediately to ensure the thrombin was mixed well with fibrinogen. The plate was placed at 37° C. overnight to allow the fibrin gel to polymerize.
HREC were trypsinized at about 80% confluence and counted by standard hemocytometer methods. After deactivating trypsin with 5 mL of 10% FBS EBM-2 medium, the cells were centrifuged (800 rpm, 8 min) and re-suspended at 2×10^5 cells/mL in 1% FBS EBM-2 medium
Cells were pre-incubated with integrin compounds or echistatin at 37° C., 5% CO2, and 95% humidity for 30 minutes before mixing with PMA medium. The final concentrations of all agents are shown in the design table. The 100 μL of the cell mixture was added onto the gel and cells were cultured at 37° C., 5% CO2, and 95% humidity. Images were taken at different time points.
The network formation scoring system (a five point-scale)
Each well in one group was given a score and then averaged. Data were expressed as mean±SEM of network formation scores. Statistical analysis was performed using a one-way ANOVA-Dunnett's test in raw data, and p<0.05 was considered statistically significant. Data analysis was performed using statistical analysis software JMP (SAS Institute, Cary, N.C.).

[2] = system: laser-induced CNV in rats; assay: Laser-induced choroidal neovascularization in rats (CNV area, fluorescein angiography grades); format: in vivo, Brown Norway rats; details: day 14, 200 μg/eye (echistatin 5 μg, Avastin 125 μg); for Number of lesions in FA grade 1 / Number of lesions in FA grade 2 / Number of lesions in FA grade 3 / Number of lesions in FA grade 4: unobstructed lesions
Protocol: Fifty six male Brown Norway rats, approximately 200-300 grams of body weight and two months of age, were used in this study. This study was performed in two cohorts and only one eye of each rat was used.
The pupils were dilated and then the rats were anesthetized as described in baseline examination. The rats were positioned in front of a slit lamp system (Haag-Streit USA, Mason, Ohio). […] A diode laser (OcuLight TX, IRIDEX, Mountain View, Calif.) was used for photocoagulation (532 nm wavelength, 120 mW power, 50 μm spot size and 0.05 seconds duration). For each right eye, a series of six photocoagulation sites were concentrically placed between the major retinal vessels at equal distance (about two optic discs) around the optic nerve head. […] If a significant retinal or subretinal hemorrhage occurred during the laser photocoagulation, then the left eye was be photocoagulated and used as the experimental eye.
Grade 1 lesions had no hyperfluorescence.
The eyes were collected on day 14 and immediately fixed in 4% paraformaldehyde in PBS (pH 7.4) for one and half hours, and then transferred into cold PBS and kept at 4° C. for further processing.
The incubation was performed in a humidified dark chamber with gentle rotation at 4° C. overnight. On the second day, the retinal pigment epithelium (RPE)-choroidsclera complexes were washed with cold IHC buffer, mounted with ProLong® Gold antifade reagent, covered with circular cover glass, and sealed with clear nail polish. Fluorescent images were collected with a confocal microscope (FluoView FV 1000 confocal microscope, Olympus, Center Valley, Pa.) and a 4×, 0.16 numerical aperture objective lens. […] The laser sites were identified by merging images of the green (phalloidin labeling RPE) and the red (isolectin IB4 labeling CNV) channels. CNV complexes were identified using the red channel (isolectin), and their areas were quantified using the FluoView software (Version 1.7a).
Average FA scores and areas of CNV complexes in each group were presented as mean±SEM, unless otherwise indicated. They were analyzed using a one-way ANOVA followed by a Tukey-Kramer test after Box-Cox transformations. All statistics were performed utilizing the statistical analysis software JMP (SAS Institute, Cary, N.C.). p values ≦0.05 were considered statistically significant.

[3] = Ocular clinical findings in rats 14 days after intravitreal injection; details: for Intraocular inflammation and retinal vascular congestion: Day 14 after intravitreal injection
Protocol: The anterior segment of the eye was examined using a slit-lamp biomicroscopy for excluding any animals with abnormalities that might interfere with the study. Fundus photography and fluorescein angiography (FA) were performed to document the health of the retina and the ocular circulation using a TRC 50EX fundus camera (Topcon). For FA, 10% sodium fluorescein was injected intravenously (50 mg/kg of body weight) through the tail vein or the vein under the incisor before the procedure.
Immediately after placement of laser photocoagulation, the experimental eyes received an intravitreal injection of either a compound or a vehicle as described in Table 5. Following the disinfection of ocular surface with 5% betadine and 0.9% saline solutions, the injections were performed with aid of a surgical microscope using 0.3 mL syringes with a 31-gauge ½-inch long needle (Ultra-Fine II™ Insulin syringe, BD, Franklin Lakes, N.J.).
Two weeks after photocoagulation, all rats were examined under anesthesia and pupil dilation with slit-lamp biomicroscopy, fundus photography and FA as described in the baseline examination.

[4] = system: human retinal endothelial cells (HREC); assay: Testing 5: VEGF-induced HREC proliferation (MTS assay), echistatin and Avastin alone and in combination; format: cell-based; details: echistatin 2 nM
Protocol: HREC were first cultured overnight in a 96-well plate coated with fibronectin. The next day, cells were serum-starved for 2 h before treatment. Medium containing different agents as shown in table below was pre-incubated for 1 h before being added to cells. The cells were cultured at 37° C., 5% CO2, and 95% humidity for another 3 days. After that, cell proliferation was estimated by the MTS assay. […] Normal human IgG was also added to different groups in such a way that all groups contained the same amounts of IgG protein.
A 96-well plate was coated with human fibronectin (10 μg/mL) for 5 hours. HREC were collected from flasks by EDTA-trypsin treatment and re-suspended in 10% FBS CS-C medium at 15,000 cells/mL. Cells (200 μL) were added to the plate and cultured overnight at 37° C., 5% CO2, and 95% humidity. Next day, the medium was removed and 200 μl/well serum free medium was added.
All medium solutions were incubated for 1 h at 37° C. After carefully aspirating the medium from cells, […], of the medium containing the different agents was added into appropriate wells. The cells were cultured for another 3 days.
At the end of incubation, the medium was carefully aspirated from cells and 120 μl of MTS working solution was added into all wells including blank wells (without cells). The plate was incubated at 37° C., 5% CO2, and 95% humidity for 1 hour and then absorbance was read by a plate reader at 490 nm wavelength.
Median optical density (OD) was generated from different groups. Data were expressed as mean±SEM of the OD values. Statistical analysis was performed using a one or two-way ANOVA using Box-Cox transformed data if needed, and P<0.05 was considered statistically significant. […] All the data from the individual wells were fitted to a re-parameterized four-parameter logistic equation to obtain IC50 using similar methodology as that previously described and utilizing the statistical analysis software JMP (SAS Institute, Cary, N.C.).

[5] = system: human retinal endothelial cells (HREC); assay: Testing 7: VEGF-induced HREC proliferation (MTS assay), integrin antagonists and Lucentis alone and in combination; format: cell-based; details: study II; compound 1 nM; Lucentis 1 ng/mL
Protocol: HREC were first cultured overnight in a 96-well plate coated with fibronectin. The next day medium containing different agents as shown in Tables 14 and 15 was pre-incubated for 1 hour before being added into appropriate wells. The cells were cultured at 37° C., 5% CO2, and 95% humidity for another 3 days. After that, cell proliferation was estimated by the MTS assay. In the first study we used VEGF 10 ng/mL (about EC80 in study PH08169), Lucentis® 1 ng/mL (about EC25 in study PH09038) and 5 doses of BOL-303055-X. Normal IgG (1 ng/ml) was also added to groups containing no Lucentis®. All groups contained the same amount of 0.1% DMSO. In the second study, all five compounds (BOL-303049-X, BOL-303050-X, BOL-303051-X, BOL-303054-X and BOL-303055-X) were tested at 1 nM with other conditions remaining the same.
A 96-well plate was coated with human fibronectin (10 μg/mL) for 5 hours at 37° C. HREC were washed with HBSS buffer once, tripsinized and re-suspended in 10% FBS CS-C medium at 18,000 cells/mL. Cells (200 μL) were added to the plate and cultured overnight at 37° C., 5% CO2, and 95% humidity. Next day, the cells were serum-starved for 2 hours.
For study I, VEGF at 10 ng/mL, Lucentis® at 1 ng/mL and BOL-303055-X at 0.1, 0.3, 1, 3 and 10 nM were prepared in 1% FBS CS medium as shown in Table 14. Normal IgG (1 ng/mL) were added to groups containing no Lucentis®. All medium solutions were incubated for 1 hour at 37° C. After carefully medium was aspirated, 200 μL of the medium containing different agents were then added into appropriate wells. The cells were cultured for another 3 days. For the study II as shown in the Table 15, five compounds were tested at 1 nM with other conditions remaining the same as study I.
At the end of incubation, the medium was carefully aspirated from cells and 120 μl of MTS working solution was added into all wells including blank wells (without cells). The plates were incubated at 37° C., 5% CO2, and 95% humidity for 1 hour and then read by a plate reader at 490 nm wavelength.
Median optical density (OD) was generated from different groups. Data were expressed as mean±SEM of the OD values. Statistical analysis was performed using three-way ANOVA after Box-Cox transformations, and p<0.05 was considered statistically significant. To evaluate whether the effects of the combinations were either synergistic or additive, net inhibitions were calculated by subtracting the basal levels in the presence of VEGF from the individual treatments (Lucentis® and Integrin blockers) and the combinations. […] Data analysis was performed utilizing the statistical analysis software JMP (SAS Institute, Cary, N.C.).

[6] = one intravitreal injection after laser
[7] = Day 14, 200 μg/eye intravitreal

For Echistatin [reference compound], the “Inhibition of PMA-induced HREC network formation in fibrin gel” value (“Inhibition … in fibrin gel” below) ([1]; 10 nM) was “significantly inhibited”, the “CNV area / development of CNV on isolectin IB4-labeled flat mounts compared to vehicle-treated controls” value [2, 6] was “smaller area of CNV” and the “Mean score of fluorescein leakage (FA score) compared to vehicle-treated controls” value [2, 6] was “smaller means”. For the same compound, the “Number of lesions in FA grade 1” value [2] was 0, the “Number of lesions in FA grade 2” value [2] was 12 and the “Number of lesions in FA grade 3” value [2] was 3. The “Number of lesions in FA grade 4” value [2] was 2, the “Cataract formation” value ([3]; Day 14, echistatin 5 μg/eye intravitreal) was “Two eyes treated with echistatin developed cataract” and the “Intraocular inflammation and retinal vascular congestion” value [3] was “no intraocular inflammation and retinal vascular congestion was recorded”. The “Enhancement of Avastin potency” value [4] was “approximately 1.6 fold”, the “Inhibition of VEGF-induced HREC proliferation, agent alone” value ([4]; Avastin 0.625-10 ng/ml (significant at 10 ng/ml), VEGF 10 ng/mL) was “not statistically significant” and the “HREC proliferation under basal conditions” value ([4]; Avastin 0.625-10 ng/ml, no VEGF) was “significantly inhibited”. For the same compound, the “Combination effect with Avastin on VEGF-induced HREC proliferation (synergistic/additive)” value ([4]; Avastin 0.625 to 10 ng/ml) was “additive effects”.

With CC1(C)O[C@@H]2C[C@H]3[C@@H]4CCC5=CC(=O)C=C[C@]5(C)[C@@]4(F)[C@@H](O)C[C@]3(C)[C@]2(C(=O)CO)O1 [TA, triamcinolone acetonide, reference compound] the “Number of lesions in FA grade 1” value [2] was 3, the “Number of lesions in FA grade 2” value [2] was 11 and the “Number of lesions in FA grade 3” value [2] was 4. For the same compound, the “Number of lesions in FA grade 4” value [2] was 0 and the “Intraocular inflammation and retinal vascular congestion” value [3] was “no intraocular inflammation and retinal vascular congestion was recorded”.

For Cc1nc(NC[C@H](NC(=O)OCC2CCCCC2)C(=O)O)c(C)c(N2CCC(c3ccc4c(n3)NCCC4)CC2)n1 [BOL-303051-X], the “Inhibition … in fibrin gel” value ([1]; 1 nM) was “significantly inhibited”, the “Inhibition … in fibrin gel” value ([1]; 10 nM) was “significantly inhibited” and the “Mean score of fluorescein leakage (FA score) compared to vehicle-treated controls” value [2, 6] was “smaller means”. The “Number of lesions in FA grade 1” value [2] was 2, the “Number of lesions in FA grade 2” value [2] was 3 and the “Number of lesions in FA grade 3” value [2] was 9. For the same compound, the “Number of lesions in FA grade 4” value [2] was 10, the “Combination effect with Lucentis on VEGF-induced HREC proliferation (synergistic/additive)” value [5] was “additive effects” and the “Eyes with anterior chamber inflammation/Total eyes” value [3, 7] was 3/6. The “Eyes with retinal vascular congestion/vessel-observable eyes” value [3, 7] was 0/4.

With COc1ccc(CCOC(=O)N[C@@H](CNc2nc(C)nc(N3CCC(c4ccc5c(n4)NCCC5)CC3)c2C)C(=O)O)cc1 [BOL-303049-X] the “Inhibition … in fibrin gel” value ([1]; 1 nM) was “significantly inhibited”, the “Inhibition … in fibrin gel” value ([1]; 10 nM) was “significantly inhibited” and the “Number of lesions in FA grade 1” value [2] was 0. For the same compound, the “Number of lesions in FA grade 2” value [2] was 0, the “Number of lesions in FA grade 3” value [2] was 0 and the “Number of lesions in FA grade 4” value [2] was 0. The “Combination effect with Lucentis on VEGF-induced HREC proliferation (synergistic/additive)” value [5] was “synergistic effect”, the “Eyes with anterior chamber inflammation/Total eyes” value [3, 7] was 6/6 and the “Eyes with retinal vascular congestion/vessel-observable eyes” value [3, 7] was 1/1. For the same compound, the “Posterior synechiae of iris” value [3, 7] was “Posterior synechiae of iris occurred in several eyes” and the “Intraocular inflammation and retinal vascular congestion” value [3] was “most severe inflammation”.
